Test system: Rattus norvegicus
Experiment: Neuroprotective activity (1 mg/kg) administered intravenously was evaluated in rat model of focal cerebral ischemia induced by permanent occlusion of the middle cerebral artery(MCA)
Format: functional

| SMILES | Infarct volume |
| --- | --- |
| O[C@H](CN1CCC(Cc2ccc(F)cc2)CC1)c1ccc(Cl)cc1 | 58.9 mm³ |
| O[C@@H](CN1CCC(Cc2ccc(F)cc2)CC1)c1ccc(Cl)cc1 | 37.7 mm³ |
| OC(CN1CCC(Cc2ccc(F)cc2)CC1)c1ccc(Cl)cc1 (racemic) [ELIPRODIL] | 33.3 mm³ |

Source: ChEMBL document CHEMBL1128848, “The asymmetric synthesis of both enantiomers of eliprodil” (1995)
